From patent US9540393B2, “Inhibitors of human immunodeficiency virus replication” (priority 2013, dated 2017)
Where two headings read alike, the source gives them in different places.

What was measured:
[1] = rcm bond, DCE
[2] = test system: NL-RLuc virus; assay: Inhibition of HIV replication (NL-RLuc luciferase reporter virus in MT-2 cells); type: cell-based, human immunodeficiency virus (HIV); conditions: recombinant NL-Rluc virus infecting MT-2 cells, 5 days of incubation, luciferase readout; at least 2 experiments; serum condition not given (10% FBS, 15 mg/ml human serum albumin/10% FBS or 40% human serum/5% FBS)

SMILES | EC50 [2] | also measured
Cc1nc2cc3nn2c(c1[C@H](OC(C)(C)C)C(=O)O)-c1ccc2c(c1Cl)N(CC=CCCc1ccccc1CNC3=O)CCO2 |  | ring closure, yield of all isomers ([1]; from C=CCCc1ccccc1CNC(=O)c1cc2nc(C)c([C@H](OC(C)(C)C)C(=O)OCC)c(-c3ccc4c(c3Cl)N(CC=C)CCO4)n2n1, Hoveyda-Grubbs II, 32.0 mM, 83.0 °C, 3.0 h, 2 steps): 14.8%
Cc1nc2cc3nn2c(c1[C@H](OC(C)(C)C)C(=O)O)-c1ccc2c(c1Cl)N(CC=CCOc1cc(F)ccc1CNC3=O)CCO2 |  | ring closure, yield of all isomers ([1]; from C=CCOc1cc(F)ccc1CNC(=O)c1cc2nc(C)c([C@H](OC(C)(C)C)C(=O)OCC)c(-c3ccc4c(c3Cl)N(CC=C)CCO4)n2n1, Hoveyda-Grubbs II, 57.0 mM, 83.0 °C, 3.0 h, 2 steps): 30.5%
Cc1nc2cc3nn2c(c1[C@H](OC(C)(C)C)C(=O)O)N1CCC(C)(CC1)OCCCCOc1ccccc1CC(O)CNC3=O (single isomer, unassigned) [Example 21] | 136 nM | 
Cc1nc2cc3nn2c(c1[C@H](OC(C)(C)C)C(=O)O)-c1ccc2c(c1Cl)N(C/C=C/COc1cc(F)ccc1CNC3=O)CCO2 (single isomer, unassigned) [Example 2] | 31 nM | 
Cc1nc2cc3nn2c(c1[C@H](OC(C)(C)C)C(=O)O)-c1ccccc1C=CCOc1cc(F)ccc1CNC3=O |  | ring closure, yield of all isomers ([1]; from C=CCOc1cc(F)ccc1CNC(=O)c1cc2nc(C)c([C@H](OC(C)(C)C)C(=O)OCC)c(-c3ccccc3C=C)n2n1, Hoveyda-Grubbs II, 37.0 mM, 83.0 °C, 16.0 h, 2 steps): 5%
Cc1nc2cc3nn2c(c1[C@H](OC(C)(C)C)C(=O)O)N1CCC(C)(CC1)OCCCCOc1ccccc1CC(O)CNC3=O (some centres unmarked) |  | ring closure, yield of all isomers ([1]; from C=CCOc1ccccc1CC(O)CNC(=O)c1cc2nc(C)c([C@H](OC(C)(C)C)C(=O)OCC)c(N3CCC(C)(OCC=C)CC3)n2n1, Hoveyda-Grubbs 2nd generation, 6.0 mM, 70.0 °C, 2.0 h, 3 steps): 51.1%
Cc1nc2cc3nn2c(c1[C@H](OC(C)(C)C)C(=O)O)-c1ccc2c(c1Cl)N(C/C=C/COc1cc(F)ccc1CNC3=O)CCO2 (single isomer, unassigned) [Example 4] | 1460 nM | 
Cc1nc2cc3nn2c(c1[C@H](OC(C)(C)C)C(=O)O)-c1ccc2c(c1Cl)N(CC/C=C\Oc1cc(F)ccc1CNC3=O)CCO2 (single isomer, unassigned) [Example 3] | 42 nM | 
Cc1nc2cc3nn2c(c1[C@H](OC(C)(C)C)C(=O)O)-c1ccc2c(c1Cl)N(CC/C=C\Oc1cc(F)ccc1CNC3=O)CCO2 (single isomer, unassigned) [Example 5] | 12100 nM | 
Cc1nc2cc3nn2c(c1[C@H](OC(C)(C)C)C(=O)O)N1CCC(C)(CC1)OCCCCOc1ccccc1CC(O)CNC3=O (single isomer, unassigned) [Example 22] | 57 nM | 
CCOC(=O)[C@@H](OC(C)(C)C)c1c(C)nc2cc3nn2c1N1CCC(C)(CC1)OCCCCOc1ccccc1CC(=O)CNC3=O |  | ring closure, yield of all isomers ([1]; from C=CCOc1ccccc1CC(O)CNC(=O)c1cc2nc(C)c([C@H](OC(C)(C)C)C(=O)OCC)c(N3CCC(C)(OCC=C)CC3)n2n1, Hoveyda-Grubbs 2nd generation, 7.4 mM, 70.0 °C, 2.0 h, 3 steps): 43.1%
